# Measurements as given in patent publication US10829478B2, “5-[3-[piperazin-1-yl]-3-oxo-propyl]-imidazolidine-2,4-dione derivatives as ADAMTS 4 and 5 inhibitors for treating e.g. osteoarthritis” (Galapagos NV, priority 2016, dated 2020).
# Legend:
# human ADAMTS-5 = human ADAMTS-5 (Homo sapiens (Human), UniProt Q9UNA0); experiment: hADAMTS-5 TBIS-1 cleavage assay, Protocol 3; assay type: biochemical; settings: 90 min at 37° C., read-out: hADAMTS-5 potency IC50
# Experimental: The reaction is initiated by adding to the assay plate TBIS-1 (10 μL, 4.5 μM, Anaspec) in the same buffer.
# Finally, the fluorescence is read on the Envision (Perkin Elmer) after an incubation of 90 min at 37° C. (Excitation 485 nm, emission 530).
# human ADAMTS6 = human ADAMTS6 (Homo sapiens (Human), UniProt Q9UKP5); experiment: hADAMTS-6 fluorescent based protease assay (520 MMP FRET substrate XII); assay type: biochemical; settings: 37° C. for 2 h; read-out: hADAMTS-6 potency IC50
# Experimental: The IC50 value for test compounds can be determined in a fluorescent based protease assay.
# The substrate contains sequence Arg-Pro-Lys-Pro-Tyr-Ala-Nva-Trp-Met-Lys (SEQ ID NO: 7) with attached a fluorescent probe and a quencher. Without ADAMTS6, the emission of the probe is quenched. If the substrate is cleaved by ADAMTS6, the emission of the probe is not quenched anymore. Inhibition of ADAMTS6 activity, will result in a decrease of the signal.
# To perform the assay, 4 μL of a dilution series of compound in water, starting from 20 μM highest concentration, ⅕ dilution, is added to the wells. 2 ng ADAMTS6 enzyme is diluted in 25 mM Tris pH8.0, 0.05% CHAPS, 2.5 mM CaCl2 in a total volume of 26 μL (final concentration 0.73 nM). The reaction is started by addition of 10 μL of 1 μM 520 MMP FRET Substrate XII (final concentration, diluted in same buffer as described above) and the mixture is incubated at 37° C. for 2 h. […] After this incubation, cleavage of the substrate is measured using the Envision (Perkin Elmer, exc485/em530).
# human TACE = human TACE (Homo sapiens (Human), UniProt P78536); experiment: biochemical
# Chain of human TACE (P78536 215-671): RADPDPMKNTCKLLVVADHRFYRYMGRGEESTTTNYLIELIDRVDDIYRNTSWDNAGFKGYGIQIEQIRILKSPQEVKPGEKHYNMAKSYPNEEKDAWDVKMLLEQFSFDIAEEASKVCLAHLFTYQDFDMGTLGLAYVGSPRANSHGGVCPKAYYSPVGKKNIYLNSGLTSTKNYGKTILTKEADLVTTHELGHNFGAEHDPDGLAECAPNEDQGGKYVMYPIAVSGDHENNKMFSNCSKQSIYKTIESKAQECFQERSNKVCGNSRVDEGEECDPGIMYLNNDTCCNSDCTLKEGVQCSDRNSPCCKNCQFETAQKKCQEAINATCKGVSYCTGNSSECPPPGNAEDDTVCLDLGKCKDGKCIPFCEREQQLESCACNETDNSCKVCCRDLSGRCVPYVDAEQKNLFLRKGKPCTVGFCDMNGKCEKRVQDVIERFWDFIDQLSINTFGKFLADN
# Experimental: Finally, the fluorescence is read on the Envision (Perkin Elmer) after an incubation of 75 min at room temperature (Excitation 485 nm, Emission 530).
# Chain of human ADAMTS6 (Q9UKP5 other isoform, or with tags, fused parts or gaps): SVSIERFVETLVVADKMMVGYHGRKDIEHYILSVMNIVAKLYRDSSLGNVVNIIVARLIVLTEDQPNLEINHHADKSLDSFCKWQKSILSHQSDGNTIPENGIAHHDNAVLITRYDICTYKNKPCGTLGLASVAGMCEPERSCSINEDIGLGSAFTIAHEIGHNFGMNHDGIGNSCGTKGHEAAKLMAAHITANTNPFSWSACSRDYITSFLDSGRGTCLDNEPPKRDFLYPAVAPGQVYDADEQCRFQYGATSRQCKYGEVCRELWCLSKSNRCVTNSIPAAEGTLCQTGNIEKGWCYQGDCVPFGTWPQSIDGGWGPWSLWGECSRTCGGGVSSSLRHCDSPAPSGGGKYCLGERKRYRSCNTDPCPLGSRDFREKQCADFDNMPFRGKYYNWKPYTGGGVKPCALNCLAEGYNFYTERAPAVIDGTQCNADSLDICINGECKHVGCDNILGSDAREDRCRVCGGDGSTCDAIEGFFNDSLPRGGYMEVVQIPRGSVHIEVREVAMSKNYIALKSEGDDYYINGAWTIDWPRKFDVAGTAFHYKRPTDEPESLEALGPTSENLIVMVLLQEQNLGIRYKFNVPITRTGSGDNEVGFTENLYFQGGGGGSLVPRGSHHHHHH
# Chain of human ADAMTS-5 (Q9UNA0 262-930): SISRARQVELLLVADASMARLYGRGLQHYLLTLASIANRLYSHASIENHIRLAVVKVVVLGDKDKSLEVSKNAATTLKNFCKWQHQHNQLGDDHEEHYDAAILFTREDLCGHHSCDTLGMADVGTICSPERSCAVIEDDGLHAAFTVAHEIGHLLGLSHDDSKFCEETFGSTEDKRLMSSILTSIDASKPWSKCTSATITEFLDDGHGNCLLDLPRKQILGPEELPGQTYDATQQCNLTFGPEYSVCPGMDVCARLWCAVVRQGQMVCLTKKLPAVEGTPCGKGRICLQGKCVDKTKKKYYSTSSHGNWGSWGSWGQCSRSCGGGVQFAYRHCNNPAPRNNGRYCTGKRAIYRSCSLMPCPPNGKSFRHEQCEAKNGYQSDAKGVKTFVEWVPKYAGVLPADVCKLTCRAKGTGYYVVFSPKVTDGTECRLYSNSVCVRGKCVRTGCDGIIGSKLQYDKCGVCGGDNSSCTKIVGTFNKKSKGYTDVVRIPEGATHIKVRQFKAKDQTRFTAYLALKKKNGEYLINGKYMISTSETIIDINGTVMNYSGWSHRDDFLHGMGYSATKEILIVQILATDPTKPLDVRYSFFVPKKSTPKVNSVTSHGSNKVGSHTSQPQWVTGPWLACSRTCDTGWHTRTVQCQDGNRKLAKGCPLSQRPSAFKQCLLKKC
Compound,IC50 (human ADAMTS-5) [nM],IC50 (human ADAMTS6) [nM],IC50 (human TACE) [nM]
"COc1cc(Cl)ccc1N1CCN(C(=O)CC[C@@]2(C)NC(=O)NC2=O)CC1 [Cpd 73, (5R)-5-[3-[4-(4-chloro-2-methoxy-phenyl)piperazin-1-yl]-3-oxo-propyl]-5-methyl-imidazolidine-2,4-dione]",> 100,> 100,> 100
"COc1cc(Cl)c(Cl)cc1N1CCN(C(=O)CC[C@@]2(C)NC(=O)NC2=O)CC1 [Cpd 94, (5R)-5-[3-[4-(4,5-dichloro-2-methoxy-phenyl)piperazin-1-yl]-3-oxo-propyl]-5-methyl-imidazolidine-2,4-dione]",> 100,0.001 to 25,> 100
"COc1cc(N2CCN(C(=O)CC[C@@]3(C)NC(=O)NC3=O)C[C@@H]2C)c(C)cc1F [Cpd 66, (5R)-5-[3-[(3S)-4-(4-fluoro-5-methoxy-2-methyl-phenyl)-3-methyl-piperazin-1-yl]-3-oxo-propyl]-5-methyl-imidazolidine-2,4-dione]",> 100,50 to 100,> 100
"COc1cc(Cl)c(C)cc1N1CCN(C(=O)CC[C@@]2(C)NC(=O)NC2=O)C[C@@H]1C [Cpd 95, (5R)-5-[3-[(3S)-4-(4-chloro-2-methoxy-5-methyl-phenyl)-3-methyl-piperazin-1-yl]-3-oxo-propyl]-5-methyl-imidazolidine-2,4-dione]",> 100,0.001 to 25,> 100
"COc1ccc(Cl)cc1N1CCN(C(=O)CC[C@@]2(C)NC(=O)NC2=O)C[C@@H]1C [Cpd 91, (5R)-5-[3-[(3 S)-4-(5-chloro-2-methoxy-phenyl)-3-methyl-piperazin-1-yl]-3-oxo-propyl]-5-methyl-imidazolidine-2,4-dione]",> 100,> 100,> 100
"CCOc1cc(N2CCN(C(=O)CC[C@H]3NC(=O)NC3=O)CC2)cc(OC)c1Cl [Cpd 149, (5R)-5-[3-[4-(4-chloro-3-ethoxy-5-methoxy-phenyl)piperazin-1-yl]-3-oxo-propyl]imidazolidine-2,4-dione]",> 100,50 to 100,> 100
"COc1cc(Cl)ccc1N1CCN(C(=O)CC[C@@]2(C)NC(=O)NC2=O)C[C@@H]1C [Cpd 76, (5R)-5-[3-[(3 S)-4-(4-chloro-2-methoxy-phenyl)-3-methyl-piperazin-1-yl]-3-oxo-propyl]-5-methyl-imidazolidine-2,4-dione]",> 100,> 100,> 100
"COc1cc(N2CCN(C(=O)[C@H](C)C[C@@]3(C4CC4)NC(=O)NC3=O)C[C@@H]2C)cc(F)c1F (stereo in doubt) [Cpd 134, 5-cyclopropyl-5-[3-[(3S)-4-(3,4-difluoro-5-methoxy-phenyl)-3-methyl-piperazin-1-yl]-2-methyl-3-oxo-propyl]imidazolidine-2,4-dione]",> 100,50 to 100,–
"COc1cc(F)c(F)cc1N1CCN(C(=O)CC[C@@]2(C)NC(=O)NC2=O)C[C@@H]1C [Cpd 113, (5R)-5-[3-[(3 S)-4-(4,5-difluoro-2-methoxy-phenyl)-3-methyl-piperazin-1-yl]-3-oxo-propyl]-5-methyl-imidazolidine-2,4-dione]",> 100,> 100,–
"COc1cccc(N2CCN(C(=O)CC[C@H]3NC(=O)NC3=O)CC2)c1C [Cpd 137, (5R)-5-[3-[4-(3-methoxy-2-methyl-phenyl)piperazin-1-yl]-3-oxo-propyl]imidazolidine-2,4-dione]",> 100,> 100,–
"COC[C@]1(C[C@H](C)C(=O)N2CCN(c3cc(C)c(Cl)c(OC)c3)[C@@H](C)C2)NC(=O)NC1=O (mixture of isomers) [Cpd 126, 5-[3-[(3S)-4-(4-chloro-3-methoxy-5-methyl-phenyl)-3-methyl-piperazin-1-yl]-2-methyl-3-oxo-propyl]-5-(methoxymethyl)imidazolidine-2,4-dione]",25 to 50,0.001 to 25,–
